Measurements: ChEMBL document CHEMBL1129708, “Design and synthesis of ring-constrained boropeptide thrombin inhibitors” (Bioorg Med Chem Lett, 1996)

Target: Prothrombin (Homo sapiens, UniProt P00734)
Test: Compound was evaluated for the inhibitory activity against thrombin.

| SMILES | Ki [nM] |
| --- | --- |
| NCCCC[C@H](NC(=O)[C@@H]1CCCN1C(=O)CCc1cccc(C(F)(F)F)c1)B(O)O | 0.78 |
| CC(C)(C)OC(=O)N1C[C@H](C(=O)N2CCC[C@H]2C(=O)N[C@@H](CCCCN)B2O[C@@H]3C[C@@H]4C[C@@H](C4(C)C)[C@]3(C)O2)[C@@H](c2cccc(C(F)(F)F)c2)C1 | 3.1 |
| CC1(C)[C@@H]2C[C@H]3OB([C@H](CCCCN)NC(=O)[C@@H]4CCCN4C(=O)[C@@H]4CNC[C@H]4c4cccc(C(F)(F)F)c4)O[C@@]3(C)[C@H]1C2 | 0.5 |
| CC(C)(C)OC(=O)N1C[C@@H](C(=O)N2CCC[C@H]2C(=O)N[C@@H](CCCCN)B2O[C@@H]3C[C@@H]4C[C@@H](C4(C)C)[C@]3(C)O2)[C@H](c2cccc(C(F)(F)F)c2)C1 | 0.32 |
| NCCCC[C@H](NC(=O)[C@@H]1CCCN1C(=O)CCc1ccccc1)B(O)O | 0.8 |
| CC1(C)[C@@H]2C[C@H]3OB([C@H](CCCCN)NC(=O)[C@@H]4CCCN4C(=O)[C@H]4CNC[C@@H]4c4cccc(C(F)(F)F)c4)O[C@@]3(C)[C@H]1C2 | 5.6 |
| NCCC[C@H](NC(=O)[C@@H]1CCCN1C(=O)[C@@H]1CCCC[C@H]1c1ccccc1)B(O)O | 0.46 |
| CC12OB(C(CCCCN)NC(=O)[C@@H]3CCCN3C(=O)[C@H]3CCCC[C@@H]3c3ccccc3)OC1C[C@@H]1C[C@H]2C1(C)C (stereo partly drawn) | 30 |
